Test systems include CAKI-1; HT-29; IGROV-1; NCI-H23; NCI-H460; OVCAR-3; OVCAR-5; SF-539; SK-MEL-2; SK-OV-3; SNB-19; SR; SW-620; TK-10; UACC-62; UO-31; HL-60; HOP-92; MOLT-4; RPMI-8226.
Common to all, as to experiment: growth of human tumour cells (NCI), 48 h

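Where inhibition never reached the appropriate level, the endpoint shown equals the highest concentration tested. Otherwise, values were interpolated linearly from a five-concentration, 48-hour dose response in 96-well plates. Here, GI50 denotes the concentration required for 50% inhibition of growth.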 Activity calls are given as the source filed them. Cut-off read from the data, not from the text of the source: active = GI50 up to about 1.1 µM and inactive = higher.

Consider `CCN(CC)CCO[Si](OCCN(CC)CC)(OCCN(CC)CC)OCCN(CC)CC`, for which the GI50 with CAKI-1, in the assay on HT-29, with IGROV-1, with NCI-H23, in the assay with NCI-H460 and in the assay on OVCAR-3 was > 100 µM (inactive) in each case. Also, the GI50 with OVCAR-5, in the assay with SF-539, in the assay on SK-MEL-2, with SK-OV-3, in the assay with SNB-19 and in the assay on SR was > 100 µM (inactive) each time. In addition, the GI50 with SW-620, in the assay on TK-10, in the assay on UACC-62 and in the assay on UO-31 was > 100 µM (inactive) throughout.
In the case of `NCC(Cl)C(O)c1c[nH]c(N)n1` (stereo unspecified), the GI50 with CAKI-1 was 0.269 µM (active); in the assay with HL-60, 3.46 µM (inactive); with HOP-92, 5.46 µM (inactive); with HT-29 it was 0.454 µM (active); in the assay on IGROV-1, 0.245 µM (active); in the assay on MOLT-4 it was 0.53 µM (active). The GI50 is 1.49 µM (inactive) with NCI-H23; 2.14 µM (inactive) with NCI-H460; 2.03 µM (inactive) in the assay with OVCAR-3; 2.01 µM (inactive) with OVCAR-5; 0.237 µM (active) with RPMI-8226; 0.473 µM (active) with SF-539. For the same compound, the GI50 is 3.56 µM (inactive) in the assay on SK-MEL-2; 0.533 µM (active) with SK-OV-3; 1.16 µM (inactive) in the assay on SNB-19; 0.37 µM (active) with SW-620; 3.01 µM (inactive) in the assay on UACC-62; 0.822 µM (active) in the assay with UO-31.
As to `O=C(NC(Cc1ccc(Cl)cc1)C(=O)O)c1ccc(I)cc1` (stereo unspecified), the GI50 in the assay with CAKI-1 was > 100 µM (inactive); with HL-60, > 100 µM (inactive); with HOP-92, > 83.4 µM (inactive); in the assay on HT-29 it was > 100 µM (inactive); in the assay with IGROV-1 it was > 100 µM (inactive); with MOLT-4, > 75.9 µM (inactive). Besides, the GI50 with NCI-H23 is > 100 µM (inactive); in the assay with NCI-H460 it was > 100 µM (inactive); in the assay with OVCAR-3, 76.7 µM (inactive); in the assay on OVCAR-5, > 100 µM (inactive); with RPMI-8226, 84.7 µM (inactive); with SF-539 it was > 100 µM (inactive). In addition, the GI50 was > 100 µM (inactive) with SK-MEL-2; > 100 µM (inactive) in the assay on SK-OV-3; > 100 µM (inactive) with SNB-19; > 100 µM (inactive) in the assay with SW-620; 64.9 µM (inactive) in the assay with UACC-62; > 100 µM (inactive) in the assay with UO-31.
On to `CCOC(=O)C1(C#N)C(c2ccccc2)CC(O)(c2ccc(OC)cc2)C(C(=O)c2ccc(OC)cc2)C1c1ccccc1` (stereo unspecified), for which the GI50 in the assay with CAKI-1 was 98.2 µM (inactive); with HL-60, > 100 µM (inactive); with HT-29, > 100 µM (inactive); in the assay with IGROV-1, > 100 µM (inactive); in the assay on MOLT-4 it was > 100 µM (inactive); in the assay on NCI-H23, > 100 µM (inactive). Also, the GI50 in the assay with NCI-H460, in the assay with OVCAR-3, with OVCAR-5, in the assay on RPMI-8226, in the assay with SK-MEL-2 and in the assay with SK-OV-3 was > 100 µM (inactive) throughout. The GI50 with SNB-19 was 32.4 µM (inactive); with SR, > 100 µM (inactive); with SW-620, > 100 µM (inactive); in the assay with TK-10, > 100 µM (inactive); with UACC-62 it was > 100 µM (inactive); in the assay with UO-31 it was 74.6 µM (inactive).
For `CCCCCCCc1cscc1-c1cscc1Br`, the GI50 with CAKI-1 is 22.5 µM (inactive); with IGROV-1, 59.7 µM (inactive); in the assay on MOLT-4 it was 20.2 µM (inactive); in the assay on NCI-H23 it was 40.8 µM (inactive); in the assay with NCI-H460 it was 39.4 µM (inactive); with OVCAR-5, 39.3 µM (inactive). For the same compound, the GI50 is 18.5 µM (inactive) in the assay with RPMI-8226; > 100 µM (inactive) with SF-539; 16.6 µM (inactive) in the assay with SK-MEL-2; 45.9 µM (inactive) in the assay with SK-OV-3; 70.1 µM (inactive) with SNB-19; 19.6 µM (inactive) in the assay with SR. Moreover, the GI50 is 42.8 µM (inactive) in the assay on SW-620, > 100 µM (inactive) in the assay on TK-10, 70 µM (inactive) in the assay on UACC-62 and 35.6 µM (inactive) in the assay with UO-31.
In the case of `C=CCNC(=O)N(CCC)CCCC(NC(C)=O)C(=O)NCc1ccccc1` (stereo unspecified), the GI50 in the assay on CAKI-1, with HL-60, in the assay with HOP-92, in the assay on HT-29, in the assay with IGROV-1 and with MOLT-4 was > 100 µM (inactive) in each case. Further, the GI50 in the assay on NCI-H23, in the assay on NCI-H460, in the assay with OVCAR-3, in the assay with OVCAR-5, in the assay with RPMI-8226 and with SF-539 was > 100 µM (inactive) throughout. The GI50 in the assay on SK-MEL-2, in the assay on SK-OV-3, in the assay on SNB-19, with SW-620, in the assay with TK-10 and with UACC-62 was > 100 µM (inactive) each time. Also, in the assay with UO-31, the GI50 was > 100 µM (inactive).
Turning to `O=c1oc2ccc(-n3c(=O)c4ccccc4c4ccccc4c3=O)cc2c2ccccc12`, the GI50 in the assay with CAKI-1 is > 100 µM (inactive); in the assay with HL-60 it was > 100 µM (inactive); with HOP-92, 36.5 µM (inactive); with HT-29, > 100 µM (inactive); in the assay with IGROV-1, > 100 µM (inactive); in the assay with MOLT-4 it was > 100 µM (inactive). The GI50 in the assay on NCI-H23, in the assay on NCI-H460, in the assay on OVCAR-3, with OVCAR-5, in the assay on RPMI-8226 and with SF-539 was > 100 µM (inactive) throughout. Moreover, the GI50 in the assay on SK-MEL-2 is 28.3 µM (inactive); in the assay on SK-OV-3 it was > 100 µM (inactive); in the assay with SNB-19, 37.7 µM (inactive); in the assay with SW-620, > 100 µM (inactive); in the assay on TK-10, > 100 µM (inactive); in the assay on UACC-62, 64.6 µM (inactive). Further, the GI50 in the assay with UO-31 was > 100 µM (inactive).
Turning to `CCOC(=O)Cc1cc(OC)c(OC)cc1/C(Cl)=C(\CO)c1ccc(OC)c(OC)c1`, the GI50 with CAKI-1 was > 100 µM (inactive); with HL-60, > 100 µM (inactive); in the assay with HOP-92, 25.2 µM (inactive); with HT-29, > 100 µM (inactive); in the assay with IGROV-1, > 100 µM (inactive); in the assay with MOLT-4, > 100 µM (inactive). The GI50 was 97.7 µM (inactive) with NCI-H23; > 100 µM (inactive) in the assay with NCI-H460; 57.7 µM (inactive) in the assay with OVCAR-3; 37.5 µM (inactive) with RPMI-8226; > 100 µM (inactive) in the assay with SK-OV-3; 50.2 µM (inactive) with SNB-19. Also, the GI50 in the assay with SW-620 was > 100 µM (inactive); in the assay on TK-10, > 100 µM (inactive); in the assay on UACC-62 it was > 100 µM (inactive); with UO-31, 80.5 µM (inactive).
Turning to `COC(=O)C12C3C4C1C1C2C3C41C(=O)O` (stereo unspecified), the GI50 with CAKI-1, in the assay with HL-60, in the assay with HOP-92, in the assay on HT-29, in the assay on IGROV-1 and in the assay on MOLT-4 was > 100 µM (inactive) each time. In addition, the GI50 with NCI-H23, in the assay with NCI-H460, in the assay on OVCAR-3, in the assay with OVCAR-5, with RPMI-8226 and in the assay with SF-539 was > 100 µM (inactive) throughout. Moreover, the GI50 in the assay with SK-OV-3, with SNB-19, with SW-620, with TK-10, in the assay with UACC-62 and with UO-31 was > 100 µM (inactive) each time.
For `COc1cc(C2c3cc4c(cc3[C@@H](Nc3cccc(CO)c3)C3COC(=O)[C@H]23)OCO4)cc(OC)c1O` (stereo partly specified), the GI50 was 0.205 µM (active) in the assay with CAKI-1; < 0.0218 µM (active) in the assay on HL-60; 0.569 µM (active) with HOP-92; 0.984 µM (active) with HT-29; 1.62 µM (inactive) with IGROV-1; 0.0448 µM (active) in the assay on MOLT-4. In addition, the GI50 was 0.375 µM (active) with NCI-H23; < 0.01 µM (active) in the assay with NCI-H460; 1.32 µM (inactive) in the assay on OVCAR-3; 2.04 µM (inactive) in the assay with OVCAR-5; 0.244 µM (active) in the assay on RPMI-8226; 0.352 µM (active) with SF-539. Moreover, the GI50 is 2.74 µM (inactive) in the assay on SK-MEL-2; 1.61 µM (inactive) in the assay with SK-OV-3; 0.453 µM (active) with SNB-19; 1.41 µM (inactive) with SW-620; 0.307 µM (active) in the assay with UACC-62; 0.541 µM (active) with UO-31.
With `Nc1ncnc2c1ncn2C1C(O)C=C(CO)C1O` (stereo unspecified), the GI50 is > 625 µM (inactive) in the assay on CAKI-1; 467 µM (inactive) with HL-60; 568 µM (inactive) in the assay with HOP-92; > 625 µM (inactive) in the assay on HT-29; > 625 µM (inactive) in the assay with IGROV-1; > 625 µM (inactive) in the assay with NCI-H460. Also, the GI50 in the assay with OVCAR-3, in the assay on RPMI-8226, in the assay on SF-539, in the assay with SK-MEL-2, in the assay with SK-OV-3 and with SNB-19 was > 625 µM (inactive) throughout. Moreover, the GI50 with SW-620, in the assay on UACC-62 and in the assay on UO-31 was > 625 µM (inactive) throughout.
